Source: patent US20080255206A1, “Rxr Agonists and Antagonists, Alone or in Combination with Ppar Ligands, in the Treatment of Metabolic and Cardiovascular Diseases” (priority 2005, published 2008)

Assays:
RARβ [1] = biological target: T1, RARβ (Homo sapiens, UniProt P10826); assay: Retinoid activation assay, RARβ (COS-1 cells, SeAP reporter); assay type: cell-based; details: read-out: Activation EC50 RAR β
T1 sequence (P10826 183-417 limits assumed): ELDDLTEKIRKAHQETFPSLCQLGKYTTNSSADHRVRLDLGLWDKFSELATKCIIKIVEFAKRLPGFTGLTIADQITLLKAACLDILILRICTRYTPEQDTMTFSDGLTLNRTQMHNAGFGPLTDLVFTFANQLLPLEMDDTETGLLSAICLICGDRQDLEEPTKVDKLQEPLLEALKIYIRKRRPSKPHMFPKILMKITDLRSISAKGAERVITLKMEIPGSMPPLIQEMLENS
Experimental: (§1) Chimeric RAR cDNAs are used for transfection which contain the DNA binding region of the estrogen receptor. As reporter system, the SeAp (secreted alkaline phosphatase) gene under control of the vitellogenin estrogen response element fused to the herpes simplex thymidinkinase promoter (vit-TK-SeAP) is used. The galactosidase expression vector pCH110 serves to correct for variation in transfection efficiency. […] At the end of the incubation, the cell supernatants are assayed for SeAP activity. Results are given as EC50 (nM), the concentration leading to half-maximal activation.

RARγ = biological target: T2, RARγ (Homo sapiens, UniProt P13631); assay: Retinoid activation assay, RARγ (COS-1 cells, SeAP reporter); assay type: cell-based; details: read-out: Activation EC50 RAR γ
T2 sequence (P13631 185-454 limits assumed): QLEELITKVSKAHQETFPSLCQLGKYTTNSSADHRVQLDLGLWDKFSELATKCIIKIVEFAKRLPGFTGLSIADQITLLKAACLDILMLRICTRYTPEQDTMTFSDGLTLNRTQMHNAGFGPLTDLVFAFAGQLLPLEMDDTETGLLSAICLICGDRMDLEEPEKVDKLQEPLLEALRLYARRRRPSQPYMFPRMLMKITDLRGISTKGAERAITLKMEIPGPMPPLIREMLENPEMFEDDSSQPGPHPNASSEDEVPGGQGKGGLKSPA
Experimental: as §1

RXRα [2] = biological target: T3, RXRα (Homo sapiens, UniProt P19793); assay: Retinoid activation assay, RXRα (Schneider SL-3 cells, luciferase reporter); assay type: cell-based; details: read-out: Activation EC50 RXR α
T3 sequence (P19793 1-462): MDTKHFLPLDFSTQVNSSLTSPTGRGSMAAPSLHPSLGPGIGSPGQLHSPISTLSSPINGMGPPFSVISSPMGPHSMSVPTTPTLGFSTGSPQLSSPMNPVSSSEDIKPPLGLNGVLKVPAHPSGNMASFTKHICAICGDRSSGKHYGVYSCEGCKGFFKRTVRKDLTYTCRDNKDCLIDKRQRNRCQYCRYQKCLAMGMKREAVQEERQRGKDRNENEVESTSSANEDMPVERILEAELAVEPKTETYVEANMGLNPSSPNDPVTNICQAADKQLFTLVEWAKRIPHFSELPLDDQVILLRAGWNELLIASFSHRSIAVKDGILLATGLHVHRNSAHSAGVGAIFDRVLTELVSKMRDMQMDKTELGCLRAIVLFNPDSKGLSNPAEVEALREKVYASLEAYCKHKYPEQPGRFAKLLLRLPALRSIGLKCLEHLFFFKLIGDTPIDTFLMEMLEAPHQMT
How it was run: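 Drosophila Schneider SL-3 cells transiently transfected (Ca-phosphate, 3-4 h before assay) with full-length RXR cDNA plus luciferase reporter driven by three rat CRBP RXR response elements on an alcohol dehydrogenase promoter. Supernatant luciferase read after incubation; EC50 is concentration giving half-maximal activation.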

RXRβ = biological target: T4, RXRβ (Homo sapiens, UniProt P28702); assay: Retinoid activation assay, RXRβ (Schneider SL-3 cells, luciferase reporter); assay type: cell-based; details: read-out: Activation EC50 RXR β
T4 construct: Full length RXR cDNA is used for transfection; expressed in transfected cells; host or cells: Schneider SL-3 cells (Drosophila)
T4 sequence (P28702 1-533): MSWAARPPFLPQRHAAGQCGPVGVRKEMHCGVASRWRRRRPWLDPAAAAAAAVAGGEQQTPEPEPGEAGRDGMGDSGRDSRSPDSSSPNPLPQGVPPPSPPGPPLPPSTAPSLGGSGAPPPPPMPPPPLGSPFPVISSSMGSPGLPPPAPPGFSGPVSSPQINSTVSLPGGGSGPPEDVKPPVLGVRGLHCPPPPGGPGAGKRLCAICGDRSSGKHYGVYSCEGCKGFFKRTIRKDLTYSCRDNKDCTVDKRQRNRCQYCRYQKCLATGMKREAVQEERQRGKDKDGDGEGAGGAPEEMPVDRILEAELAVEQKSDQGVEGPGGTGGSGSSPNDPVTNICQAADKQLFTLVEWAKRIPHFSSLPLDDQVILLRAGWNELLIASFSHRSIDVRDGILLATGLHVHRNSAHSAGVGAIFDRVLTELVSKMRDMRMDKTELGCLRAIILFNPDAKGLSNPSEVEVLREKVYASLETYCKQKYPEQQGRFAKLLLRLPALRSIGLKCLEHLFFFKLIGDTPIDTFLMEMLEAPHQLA
Experimental: Full length RXR cDNA is used for transfection. As reporter system, the luciferase gene is used in a construct with three copies of a RXR response element from rat CRBP gene, (formerly RARE from betaRAR gene), fused to alcoholdehydrogenase gene promoter in the plasmid pGL2-basic. Schneider SL-3 cells from Drosophila are transiently transfected 3-4 h before the experiment by the Ca-phosphate-DNA coprecipitation method. […] At the end of the incubation, the cell supernatants are assayed for luciferase activity. Results are given as EC50 (nM), the concentration leading to half-maximal activation.

RXRα [3] = biological target: T3, RXRα; assay: Retinoid binding assay, RXRα; design: made in house; host or cells: E. coli; details: [3H] 9-cis retinoic acid 20 nM; read-out: Binding Affinity IC50 RXR α
Text: (§2) The DEF domains of RAR's and the full length RXR's, expressed in E.coli, are used to measure competitive retinoid binding. […] 9-cis retinoic acid (for RXR's), respectively. […] Separation of bound from free radioactivity is achieved by charcoal/dextran (RAR's) or by desalting columns (RXR's). […] Retinoid Activation Assays

RARα = biological target: T5, RARα (Homo sapiens, UniProt P10276); assay: Retinoid binding assay, RARα; design: The DEF domains of RAR's and the full length RXR's, expressed in E.coli; made in house; host or cells: E. coli; details: read-out: Binding Affinity IC50 RAR α
T5 sequence (P10276 183-417 limits assumed): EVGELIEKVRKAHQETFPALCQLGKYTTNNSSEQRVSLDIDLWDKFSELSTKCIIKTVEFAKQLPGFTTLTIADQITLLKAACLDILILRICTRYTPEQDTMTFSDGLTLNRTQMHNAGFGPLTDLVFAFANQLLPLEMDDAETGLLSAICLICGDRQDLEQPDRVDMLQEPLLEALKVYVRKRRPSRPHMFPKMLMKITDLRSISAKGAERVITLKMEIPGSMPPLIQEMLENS
Text: as §2

RARβ [4] = biological target: T1, RARβ; assay: Retinoid binding assay, RARβ; design: The DEF domains of RAR's and the full length RXR's, expressed in E.coli; made in house; host or cells: E. coli; details: read-out: Binding Affinity IC50 RAR β
Text: as §2

What does the source list for CCC1(CC)CCC(C)(C)c2cc(\C(C)=C/C=C/C(C)=C/C(=O)O)ccc21 [Compound 24, (2E,4E,6Z)-7-(5,5-Diethyl-8,8-dimethyl-5,6,7,8-tetrahydro-naphthalen-2-yl)-3-methyl-octa-2,4,6-trienoic acid]?
EC50 (RARβ [1]): 9.9 nM; EC50 (RARγ): 16.1 nM; EC50 (RXRα [2]): ≥ 10000 nM; EC50 (RXRβ): ≥ 10000 nM; IC50 (RXRα [3]): 680 nM; IC50 (RARα): 46 nM; IC50 (RARβ [4]): 20 nM
